Data from paper PMC12675575, “A BRET biosensor for measuring uncompetitive engagement of PRMT5 complexes in cells” (Nature Communications, 2025).
Values joined by “and” are separate entries in the source; they are usually repeats but may differ in a detail not shown here. Identical values can stand only once.

Target: NanoLuc-PRMT5 co-expressed with WDR77 (Homo sapiens, UniProt O14744)
Assay: Live-cell NanoBRET target engagement with BRET probe CBH-002 in HEK293 cells expressing NanoLuc-PRMT5 and unlabeled WDR77
Type: cell-based
Set-up: host or cells: HEK293; key to BRET, CBH-002 + DMSO / BRET, CBH-002 + GSK3326595: mBRET units = acceptor/donor BRET ratio × 1000
Details: for BRET, CBH-002 + DMSO / BRET, CBH-002 + GSK3326595: log([CBH-002]); for BRET, CBH-002 + GSK3326595: 10 µM GSK3326595
Experimental: HEK293 cells (ATCC) were cultured in DMEM (Thermo Fisher) + 10% (v/v) FBS (Seredigm), and HCT116 cells (Horizon Discovery, #PAR-034 and #R02-033) were cultured in McCoy’s 5A (Thermo Fisher) + 10% FBS, with incubation in a humidified, 37 °C/5% CO2 incubator. Cells were split 1–3 days prior to performing experiments and used at roughly 80% confluency. […] Cells were transfected according to the manufacturer’s protocol using FuGENE HD (Promega). NanoLuc fusion DNA was diluted into Transfection Carrier DNA (Promega) in Opti-MEM at a ratio of 1:9 (mass/mass), and FuGENE HD was added at a ratio of 1:3 (μg DNA:μL lipid). […] Formed complexes were combined with cells resuspended to a density of 2 × 10^5 cells/mL in Opti-MEM + 1% FBS at a ratio of 1:20 (vol:vol). […] Cells were seeded at a density of 2 × 10^5 cells/mL in Opti-MEM + 1% FBS in 100 μL (96-well). The BRET probe CBH-002 was prepared first as a 100× stock in 100% DMSO (Sigma) and then diluted to a 20× stock in NanoBRET Tracer Dilution buffer (Promega). Test compounds were prepared as 1000× stocks in 100% DMSO and diluted to 10× stocks in Opti-MEM to prepare working stocks. […] NanoBRET Complete 3x Substrate was prepared by combining Nano-Glo Substrate and Extracellular NanoLuc Inhibitor in Opti-MEM, according to the manufacturer’s protocol (Promega).
BRET ratio values were calculated by dividing the acceptor by the donor signal, and raw BRET was converted to milli-BRET (mBRET) units (mBu) by multiplying by 1000.
EC50 values were obtained by fitting the BRET probe and compound affinity curves to a sigmoidal four-parameter fit model in Graphpad Prism:1 Y=Ymin+Ymax−Ymin/1+10^LogEC50−Xh where h is the Hill Slope.
When normalized BRET was used, mBRET values were normalized using2 NormalizedBRET%=(Y−BRETmin)/BRETmax−BRETmin where y = mBRET in the presence of test compound and BRET probe, BRETmin = mBRET at the highest concentration (saturating) of test compound and BRET probe, and BRETmax = mBRET in the presence of vehicle (DMSO) and BRET probe.
Normalized concentration-response curves showing full competition were fit using a 2-parameter model:3 Y=100/1+10^LogEC50−Xh
In situations where only partial competition was observed, the normalized concentration-response curves were fit using Eq. 1 and where Ymin was constrained to >0.

Chain of NanoLuc-PRMT5 co-expressed with WDR77 (O14744 whole entry): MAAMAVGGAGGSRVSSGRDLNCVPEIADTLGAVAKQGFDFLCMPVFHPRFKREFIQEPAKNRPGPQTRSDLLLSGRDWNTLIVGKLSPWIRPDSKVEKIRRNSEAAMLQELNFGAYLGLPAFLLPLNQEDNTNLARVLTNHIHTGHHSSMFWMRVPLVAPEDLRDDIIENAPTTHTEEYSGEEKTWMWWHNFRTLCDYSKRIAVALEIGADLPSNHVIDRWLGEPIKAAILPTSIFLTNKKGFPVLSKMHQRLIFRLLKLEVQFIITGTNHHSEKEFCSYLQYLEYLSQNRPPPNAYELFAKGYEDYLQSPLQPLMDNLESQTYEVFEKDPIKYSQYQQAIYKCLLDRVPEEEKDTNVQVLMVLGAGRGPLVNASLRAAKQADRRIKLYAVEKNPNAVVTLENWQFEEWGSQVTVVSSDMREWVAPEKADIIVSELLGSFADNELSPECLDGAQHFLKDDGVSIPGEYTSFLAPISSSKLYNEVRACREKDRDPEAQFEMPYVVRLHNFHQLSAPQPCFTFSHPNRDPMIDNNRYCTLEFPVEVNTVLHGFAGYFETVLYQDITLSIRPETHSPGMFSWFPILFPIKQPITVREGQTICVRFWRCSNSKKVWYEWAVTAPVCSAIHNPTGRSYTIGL
Chain of NanoLuc-PRMT5 co-expressed with WDR77 (Q9BQA1 whole entry partner): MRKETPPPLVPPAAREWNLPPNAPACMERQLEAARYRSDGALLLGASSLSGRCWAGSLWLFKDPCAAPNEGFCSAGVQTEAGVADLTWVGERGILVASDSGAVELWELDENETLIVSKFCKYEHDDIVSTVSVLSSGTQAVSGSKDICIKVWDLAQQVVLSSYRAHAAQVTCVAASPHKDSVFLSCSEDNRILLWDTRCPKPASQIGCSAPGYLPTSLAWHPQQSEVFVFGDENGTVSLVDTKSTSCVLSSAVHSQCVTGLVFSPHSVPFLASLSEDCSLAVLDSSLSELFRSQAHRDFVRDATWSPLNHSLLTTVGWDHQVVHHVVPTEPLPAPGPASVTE

BRET, CBH-002 + DMSO (uM 0.00): 772.09 and 714.74 and 694.22 | BRET, CBH-002 + GSK3326595 (uM 0.00): 61.04 and 53.68 and 50.91 | BRET, CBH-002 + DMSO (uM -0.30): 762.09 and 706.06 and 687.42 | BRET, CBH-002 + GSK3326595 (uM -0.30): 39.10 and 34.12 and 31.58 | BRET, CBH-002 + DMSO (uM -0.60): 725.23 and 680.05 and 663.94 | BRET, CBH-002 + GSK3326595 (uM -0.60): 21.81 and 20.23 and 18.49 | BRET, CBH-002 + DMSO (uM -0.90): 664.14 and 629.71 and 617.88 | BRET, CBH-002 + GSK3326595 (uM -0.90): 15.32 and 14.57 and 13.57 | BRET, CBH-002 + DMSO (uM -1.20): 530.53 and 496.08 and 504.63 | BRET, CBH-002 + GSK3326595 (uM -1.20): 11.35 and 11.22 and 10.54 | BRET, CBH-002 + DMSO (uM -1.51): 359.70 and 340.31 and 361.19 | BRET, CBH-002 + GSK3326595 (uM -1.51): 9.43 and 9.45 and 8.97 | BRET, CBH-002 + DMSO (uM -1.81): 238.28 and 223.48 and 233.43 | BRET, CBH-002 + GSK3326595 (uM -1.81): 8.65 and 8.75 and 8.42 | BRET, CBH-002 + DMSO (uM -2.11): 126.25 and 118.03 and 125.67 | BRET, CBH-002 + GSK3326595 (uM -2.11): 8.17 and 8.22 and 7.93 | BRET, CBH-002 + DMSO (uM -2.41): 70.04 and 65.87 and 70.86 | BRET, CBH-002 + GSK3326595 (uM -2.41): 7.94 and 8.15 and 7.70 | BRET, CBH-002 + DMSO (uM -2.71): 39.89 and 37.62 and 39.62 | BRET, CBH-002 + GSK3326595 (uM -2.71): 7.74 and 7.94 and 7.67 | BRET, CBH-002 + DMSO (uM -3.01): 23.90 and 22.68 and 24.07 | BRET, CBH-002 + GSK3326595 (uM -3.01): 7.80 and 7.76 and 7.50 | EC50 (probe titration against 10 µM GSK3326595 or DMSO, live HEK293, WDR77 co-expression, read-out: CBH-002 apparent affinity (EC50)): 33 nM
SMILES: O=C(CCc1ccc2n1[B-](F)(F)[N+]1=C(c3ccc[nH]3)C=CC1=C2)NCCCCC(=O)N1CCC(Nc2cc(C(=O)NC[C@H](O)CN3CCc4ccccc4C3)ncn2)CC1 [CBH-002]
